“And” between values parts separate entries of the source, which are not always exact repeats. Identical values can stand only once. Like-named read-outs stand apart in the source and are kept apart here.
What was measured:
[1] = tested on: Ba/F3^myr-Akt2 cells; assay: CellTiter-Glo cell viability assay
Method: (§1) On day 0, cells were plated into white 384-well cell culture plates (Greiner Bio-One) using a Multidrop reagent dispenser (Thermo Fisher Scientific) at cell numbers that ensure linear and optimal luminescent signal intensity (Ba/F3myr-Akt1: 600 cells/well, Ba/F3myr-Akt2: 800 cells/well, Ba/F3myr-Akt3: 800 cells/well). […] Cell viability was analyzed on day 4 using the CellTiter-Glo Assay (Promega) as per the manufacturer’s instructions. […] All experimental points were measured in duplicates for each plate and were replicated in at least three plates.

[2] = tested on: pAkt^S473 and downstream targets in Ba/F3 myr-Akt1; settings: Ba/F3 myr-Akt1, 4-h treatment
[3] = tested on: parental Ba/F3 cells; assay: CellTiter-Glo cell viability assay; assay type: cell-based, murine
[4] = tested on: Ba/F3^myr-Akt1 cells; assay: CellTiter-Glo cell viability assay
[5] = target: T1, Akt2 (Homo sapiens, UniProt P31751); assay: STK HTRF KinEASE activity-based assay (IC50)
T1 sequence (P31751 whole entry): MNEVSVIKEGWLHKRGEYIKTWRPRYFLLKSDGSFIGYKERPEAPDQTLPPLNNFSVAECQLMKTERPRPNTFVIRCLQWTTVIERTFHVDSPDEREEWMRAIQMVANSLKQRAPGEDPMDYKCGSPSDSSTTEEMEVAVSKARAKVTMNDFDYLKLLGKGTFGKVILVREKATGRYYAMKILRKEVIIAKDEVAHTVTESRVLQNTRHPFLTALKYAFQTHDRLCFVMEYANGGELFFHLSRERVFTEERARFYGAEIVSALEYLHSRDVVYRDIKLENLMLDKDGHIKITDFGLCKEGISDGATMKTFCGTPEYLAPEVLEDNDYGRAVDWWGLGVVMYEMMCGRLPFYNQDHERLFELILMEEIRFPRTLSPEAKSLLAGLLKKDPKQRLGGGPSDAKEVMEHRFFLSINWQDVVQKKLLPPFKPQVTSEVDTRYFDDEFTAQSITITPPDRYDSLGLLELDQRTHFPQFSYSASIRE

[6] = target: Akt3 (Homo sapiens, UniProt Q9Y243); assay: STK HTRF KinEASE activity-based assay (IC50)
Sequence of Akt3 (Q9Y243 whole entry): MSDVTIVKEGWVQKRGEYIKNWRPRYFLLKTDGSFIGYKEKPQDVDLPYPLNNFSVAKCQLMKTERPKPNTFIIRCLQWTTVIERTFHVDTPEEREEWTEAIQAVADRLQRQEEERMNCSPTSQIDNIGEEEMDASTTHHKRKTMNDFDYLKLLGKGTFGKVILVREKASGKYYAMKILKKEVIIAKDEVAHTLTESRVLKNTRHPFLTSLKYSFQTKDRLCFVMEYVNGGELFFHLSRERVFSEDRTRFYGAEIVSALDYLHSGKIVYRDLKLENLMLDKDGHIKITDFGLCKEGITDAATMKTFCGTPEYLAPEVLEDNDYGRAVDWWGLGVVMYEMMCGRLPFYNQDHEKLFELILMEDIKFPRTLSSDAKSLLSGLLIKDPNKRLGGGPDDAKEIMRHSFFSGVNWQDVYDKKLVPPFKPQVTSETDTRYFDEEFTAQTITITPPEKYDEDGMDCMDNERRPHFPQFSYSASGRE

[7] = target: T1, Akt2; assay: PhosphoSens continuous fluorometric kinetic enzyme assay
Method: (§2) By addition of either 8 nM Akt1, 2 nM Akt2, or 5 nM Akt3 (final concentrations) the reactions were initiated. […] Afterwards the kobs-values were plotted versus the inhibitor concentrations [I] and then fit to the following hyperbolic Eq.

[8] = target: T2, Akt1 (Homo sapiens, UniProt P31749); assay: as above
T2 sequence (P31749 whole entry): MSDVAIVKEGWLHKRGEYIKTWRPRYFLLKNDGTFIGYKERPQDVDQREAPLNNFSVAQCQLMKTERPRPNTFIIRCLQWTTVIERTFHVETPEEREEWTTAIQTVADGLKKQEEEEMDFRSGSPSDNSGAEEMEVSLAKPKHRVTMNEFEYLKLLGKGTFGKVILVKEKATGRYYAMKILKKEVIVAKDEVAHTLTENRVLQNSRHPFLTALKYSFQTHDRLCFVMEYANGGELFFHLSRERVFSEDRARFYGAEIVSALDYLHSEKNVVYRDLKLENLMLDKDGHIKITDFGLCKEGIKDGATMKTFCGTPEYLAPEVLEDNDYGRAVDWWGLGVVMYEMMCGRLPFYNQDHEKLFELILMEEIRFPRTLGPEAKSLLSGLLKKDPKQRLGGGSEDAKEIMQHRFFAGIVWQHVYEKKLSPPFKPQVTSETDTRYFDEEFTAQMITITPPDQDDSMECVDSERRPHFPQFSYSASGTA
Method: as §2

[9] = tested on: Ba/F3^myr-Akt3 cells; assay: CellTiter-Glo cell viability assay
Method: as §1

[10] = target: T2, Akt1; assay: STK HTRF KinEASE activity-based assay (IC50)
[11] = Mus musculus, read-out: CTG BaF3myr-Akt2, Mean, mean of replicates
[12] = read-out: CTG BaF3myr-Akt2, individual determinations, single replicates
[13] = Mus musculus, BaF3, parental cells, mean of replicates, read-out: CTG BaF3, Mean
[14] = parental cells, single replicates, read-out: CTG BaF3, individual determinations
[15] = Mus musculus, read-out: CTG BaF3myr-Akt1, Mean, mean of replicates
[16] = read-out: CTG BaF3myr-Akt1, individual determinations, single replicates
[17] = cell viability assay Ba/F3 myr-Akt cells, log units

In the case of `NC1(C(=O)N[C@@H](CCO)c2ccc(Cl)cc2)CCN(c2ncnc3[nH]ccc23)CC1` [Capivasertib, reference compound], the EC50 [1, 11] is reported as 938 nM, the EC50 ([1]; Mus musculus, read-out: CTG BaF3myr-Akt2, individual determinations, single replicates) is reported as 1140 nM and the EC50 [1, 12] is reported as 1070 nM and 600 nM. For the same compound, the “pAkt and downstream targets (immunoblot)” value [2] was “less effective”, the EC50 [3, 13] was 16000 nM and the EC50 [3, 14] was 11000 nM and 13900 nM and 23000 nM. The EC50 [4, 15] was 1070 nM, the EC50 ([4]; Mus musculus, read-out: CTG BaF3myr-Akt1, individual determinations, single replicates) was 1290 nM and the EC50 [4, 16] was 706 nM and 1200 nM and 1100 nM.
With `C=CC(=O)Nc1ccc2[nH]c(=O)n(C3CCN(Cc4ccc(-c5ncc(C(=O)Nc6cccc(N)c6)cc5-c5ccccc5)cc4)CC3)c2c1` [compound 18] the IC50 ([5]; HTRF IC50 Akt2, Mean, mean of replicates) was 38.4 nM, the IC50 ([5]; HTRF IC50 Akt2, individual determinations, single replicates) was 36.7 nM and 47.9 nM and 40 nM and the IC50 ([5]; IC50 Akt2, HTRF, ATP at KM, 1 h preincubation) was 39 ± 6 nM. For the same compound, the EC50 [1, 11] was 1480 nM, the EC50 [1, 12] was 1640 nM and 2110 nM and 691 nM and the IC50 ([6]; HTRF IC50 Akt3, Mean, mean of replicates) was 5270 nM. The IC50 ([6]; HTRF IC50 Akt3, individual determinations, single replicates) was 3820 nM and 6130 nM and 5850 nM, the IC50 ([6]; IC50 Akt3, HTRF, ATP at KM, 1 h preincubation) was 5270 ± 1030 nM and the EC50 ([3]; Mus musculus, BaF3, CTG, parental BaF3 cell line, read-out: EC50 BaF3) was greater than 30000 nM. It also gave an EC50 [3, 13] greater than 30000 nM, an EC50 ([3]; Mus musculus, BaF3, parental cells, single replicates, read-out: CTG BaF3, individual determinations) greater than 30000 nM and an EC50 [3, 14] greater than 30000 nM. The Ki ([7]; Ki Akt2) was 11 ± 2 nM, the Ki ([7]; Ki Akt2, Mean, mean of replicates) was 11.3 nM and the Ki ([7]; Ki Akt2, individual determinations, single replicates) was 10.1 nM and 10.2 nM and 13.6 nM. The kinact/KI ([7]; read-out: kinact /Ki Akt2) was 15000 ± 1000 M⁻¹ s⁻¹, the kinact/KI ([7]; read-out: kinact /Ki Akt2, Mean, mean of replicates) was 15000 M⁻¹ s⁻¹ and the kinact/KI ([7]; read-out: kinact /Ki Akt2, individual determinations, single replicates) was 15000 M⁻¹ s⁻¹. For the same compound, the kinact ([7]; read-out: kinact Akt2) was 0.000167 s⁻¹, the kinact ([7]; read-out: kinact Akt2, individual determinations, single replicates) was 0.00015 s⁻¹ and the “kinact Akt2, individual determinations” value ([7]; single replicates) was 0.009 min⁻¹ and 0.013 min⁻¹. For the same compound, the Ki ([8]; Ki Akt1) was 6 ± 1 nM, the Ki ([8]; Ki Akt1, Mean, mean of replicates) was 6.62 nM and the Ki ([8]; Ki Akt1, individual determinations, single replicates) was 4.2 nM and 7.8 nM and 7.9 nM. It also gave a kinact/KI ([8]; read-out: kinact /Ki Akt1) of 32000 ± 5000 M⁻¹ s⁻¹, a kinact/KI ([8]; read-out: kinact /Ki Akt1, Mean, mean of replicates) of 44000 M⁻¹ s⁻¹ and a kinact ([8]; read-out: kinact Akt1) of 0.000167 s⁻¹. For the same compound, the kinact ([8]; read-out: kinact Akt1, Mean, mean of replicates) was 0.000267 s⁻¹, the kinact ([8]; read-out: kinact Akt1, individual determinations, single replicates) was 0.000267 s⁻¹ and the “kinact Akt1, individual determinations” value ([8]; single replicates) was 0.014 min⁻¹ and 0.018 min⁻¹. For the same compound, the EC50 ([9]; Mus musculus, read-out: CTG BaF3myr-Akt3, Mean, mean of replicates) was 18200 nM, the “Log ratio EC50 [Akt] / EC50 [Akt], Akt3 / Akt2” value [9, 17] was -1.09 and the EC50 ([9]; read-out: CTG BaF3myr-Akt3, individual determinations, single replicates) was 10300 nM and 26000 nM and 21500 nM. The IC50 ([10]; HTRF IC50 Akt1, Mean, mean of replicates) was 90.6 nM, the IC50 ([10]; HTRF IC50 Akt1, individual determinations, single replicates) was 106 nM and 73.7 nM and 92.3 nM and the IC50 ([10]; IC50 Akt1, HTRF, ATP at KM, 1 h preincubation) was 91 ± 13 nM. For the same compound, the “Log ratio IC50 [Akt] / IC50 [Akt], Akt1 / Akt2” value ([10]; biochemical activity based assay, log units) was 0.37, the EC50 [4, 15] was 17800 nM and the “Log ratio EC50 [Akt] / EC50 [Akt], Akt1 / Akt2” value [4, 17] was 1.08. The EC50 [4, 16] was 14100 nM and 13100 nM and 26300 nM.

Reference: paper PMC8421423, “Cellular model system to dissect the isoform-selectivity of Akt inhibitors” (Nature Communications, 2021)
